Measured values: patent US8653026B2, “Treatment of type 2 diabetes with FTY720” (Diapin Therapeutics LLC, priority 2011, dated 2014)

How the values were obtained:
db/db mice = assay: Intraperitoneal glucose tolerance test; assay type: in vivo, mouse; conditions: db/db mice fasted 16 h, i.p. 10% glucose 1 mg/g; treated vs untreated
Experimental: FIG. 5A. Intraperitoneal glucose tolerance test (GTT). The mice of both groups were fasted for 16 hours and intraperitoneally injected with 10% glucose (1 mg/g body weight). Glucose levels were then measured after 0, 30, 60, 90, 120 min by a Glucometer Elite (Bayer Corp., Elkhart, Ind.). Open circle (∘), FTY720-untreated group; solid circle (●), FTY720-treated group. *p<0.01.
For the glucose tolerance test, the mice were fasted for 16 h and intraperitoneally injected with 10% glucose (1 mg/g of body weight). Glucose levels were then measured after 0, 30, 60, 90, and 120 min by a Glucometer Elite (Bayer Corp., Elkhart, Ind.) (29). For the insulin tolerance test, the mice were fasted for 6 h and injected intraperitoneally with human regular insulin (0.55 units/kg) (Sigma). Tail blood samples were collected at 0, 30, 40, 60, 90, and 120 min for glucose measurement (30, 31).

Bcl-2 = Bcl-2 mRNA levels in islets of db/db mice; assay type: in vivo, mouse; conditions: islets from FTY720-treated db/db mice vs untreated
Experimental: FIG. 10A. Levels of Bcl-2 mRNA levels of the db/db mice with (+FTY720) or without FTY720 (−FTY720) treatment. *p=0.0006
Islets were isolated from pancreases removed from the 13-week-old untreated and FTY720-treated db/db mice by Liberase (Roche Diagnostics) digestion, followed by discontinuous Ficoll gradient separation and manual stereomicroscopic selection to exclude contaminating tissues (30). Isolated islets (or INS-1 cells) were cultured in the medium (composed of RPMI 1640 medium supplemented with 10% fetal bovine serum, 2 mM L-glutamine, 1% sodium pyruvate, 50 μM β-mercaptoethanol, 100 units/ml of penicillin, and 100 μg/ml of streptomycin). For treatment of INS-1 cells, the cells were plated in RPMI medium overnight and changed to Hanks' balanced salt solution containing 2 mM glucose and 0.5% FBS overnight. Then the cells were treated with various conditions in the same medium for 24 hours.
To determine the mechanism of action (MOA) behind the increase in beta-cell mass observed in the treated mice, beta-cell survival was examined.

S1P4 = assay: S1P receptor expression in islets from db/db mice: S1P4; assay type: in vivo, mouse; conditions: after FTY720 treatment of db/db mice
Excerpt: (§1) FIG. 15. Expression of 4 FTY720-bound S1P receptors in the islets isolated from the db/db mice.
(§2) FTY720 is phosphorylated in vivo to form FTY720-P that binds S1P1, S1P3, S1P4, and S1P5 but not S1P2 (25). We determined the expression of these receptors in the islets isolated from the untreated and FTY720-treated db/db mice.

S1P3 = assay: S1P receptor expression in islets from db/db mice: S1P3; assay type: in vivo, mouse; conditions: after FTY720 treatment of db/db mice
Excerpt: as §1, §2

beta-cell = assay: In vivo BrdU incorporation (beta-cell regeneration) in pancreas; design: species or system mouse
Experimental: FIG. 11. BrdU staining in the pancreatic islets after 6 weeks FTY720 treatment. After overnight fasting, the mice were given 1 mg/ml 5-bromo-2′deoxyuridine (BrdU) intraperitoneally. 24 hours later, mice were sacrificed for BrdU staining of pancreas sections. Positive BrdU staining indicates cell proliferation.
FIG. 12. BrdU staining in the duct areas of the pancreas. After 6 weeks FTY720 treatment, overnight fasted mice were given 1 mg/ml 5-bromo-2′deoxyuridine (BrdU) intraperitoneally. 24 hours later, mice were sacrificed for BrdU staining of pancreas sections.
FIG. 13. Insulin immunostaining in newly formed insulin containing cells and islets near duct (arrow) in the FTY720-treated db/db mice (Scale bar, 100 μm).
After overnight fasting, the mice were given 1 mg/ml of 5-bromo-2-deoxyuridine (BrdU) in PBS intraperitoneally. Mice were sacrificed 24 hours after BrdU injection and pancreases were removed and fixed with a 4% formaldehyde solution. The pancreases were then embedded in paraffin and sliced into 10 μm sections. Tissue sections were stained with the anti-BrdU monoclonal antibody provided in BrdU in Situ Detection Kit (BD Biosciences).

pancreatic cancer cells = conditions: concentrations identical to this study (10 mg/kg), reportedly; cited from earlier work
[1] = Observation of cancer formation during the study; assay type: in vivo, mouse; conditions: during the course of this invention, 10 mg/kg
Excerpt: There are several advantages of the present invention. First, FTY720 is a FDA approved medicine for the treatment of patients with relapsing multiple sclerosis (MS) and its safety profile has been well studied during the clinical trial for treatment of relapsing MS, including more than 4,500 patient years of experience, with some patients in their seventh year of treatment. Second, FTY720 is an orally taken therapy and easy to take by patients, compared with insulin and GLP-1 analog therapies that have to be injected into body either by healthcare professionals or by patients themselves. […] Finally, although FTY720 promotes beta-cell regeneration, the risk of tumorigenesis is low.

[2] = db/db mice after 6 weeks FTY720 treatment, no staining in untreated

CCCCCCCCc1ccc(CCC(N)(CO)CO)cc1 [FTY720, 2-amino-2-[2-(4-octylphenyl)ethyl]propane-1,3-diol]
glucose tolerance (db/db mice): significantly improved
Bcl-2 mRNA levels (Bcl-2): significantly increased
S1P4 expression in islets (S1P4): significantly elevated
S1P3 expression in islets (S1P3): significantly elevated
insulin-positive cells or small islets in the pancreatic duct area (beta-cell; FTY720-treated db/db mice, insulin immunostaining): identified
BrdU incorporation in the pancreatic duct area (beta-cell neogenesis) (beta-cell; [2]): BrdU incorporation was observed
BrdU staining within the islets (beta-cell proliferation) (beta-cell; [2]): BrdU-positive cells were easily observed
growth, migration, and invasion of pancreatic cancer cells (pancreatic cancer cells): inhibit
cancer formation [1]: no cancer formation was observed
